In patent US8927760B2, “Colchicine derivatives or pharmaceutically acceptable salts thereof, method for preparing said derivatives, and pharmaceutical composition comprising said derivatives” (priority 2010, dated 2015):
Values joined by “and” are separate entries in the source; they are usually repeats but may differ in a detail not shown here. Equal entries are not always repeated. “Also recorded” adds a separate entry of the source.

How the values were obtained:
[1] = system: spleen cells of rats; test: Cytotoxicity test in rat spleen cells (CCK, absorbance at 450 nm); assay type: cell-based; conditions: 72 hours, at concentrations of 100 ng to 10000 ng/mL
Description: Cytotoxicity test was performed to determine the toxicity of immunosuppressant candidate materials by mixing the immunosuppressant candidate materials with spleen cells of rats in culture media and measuring the degree of toxicity in the cells. […] The concentrations of the drugs were 0.1, 1, 10, 100, 1000, 10000, and 100000 ng/mL. The cells were cultured in a CO2 incubator for 72 hours, and then each well was treated with 10 μl of CCK-SK (Dojindo, Japan). Subsequently, the cells were cultured again in the CO2 incubator for 4 hours, and then the absorbance (O.D. value) was measured at 450 nm using a spectrophotometer.

[2] = system: streptozotocin induced diabetic Fischer 344 rats with transplanted Lewis rat islet cells; test: Allogeneic pancreatic islet cell transplantation - combined intraperitoneal administration; assay type: in vivo; conditions: for Average number of days for which islet cell function was maintained / Number of days for which islet cell function was maintained (individual rats): i.p. for 14 days
Description: (§1) Streptozotocin is a drug that destroys pancreatic islet cells to induce diabetes and is used to create experimental diabetic animal models. Allogeneic islets were transplanted into the livers of streptozotocin induced diabetic rat by injection into the portal vein. The functioning of transplanted islets was assessed by daily measurements of blood glucose levels. Islets were considered rejected when the blood glucose level was 200 mg/dl on two consecutive days.
(§2) 35 mg/kg of streptozotocin (50 mg/mL) dissolved in a 0.1 M citrate buffer solution (pH 4.5) was intraperitoneally injected into 8-week-old male Fischer 344 rats (F344) weighing about 200 to 220 g. Then, the blood glucose level was measured after 1 week, and the first day when the blood glucose level increased over 300 mg/dl and the increase was repeated more than twice was considered as the date of diagnosis of diabetes. The rats were used in transplantation 3 weeks after the administration of streptozotocin.
(§3) Pancreases of 8-week-old male Lewis rats were extracted on the 3 weeks after the diabetes was induced in Fischer rats, and islet cells were isolated. The isolated islet cells were cultured in a CO2 incubator at 37° C. for a day, and the cultured islet cells were transplanted into the diabetic Fischer rats.
However, considering the interaction between the two drugs, the two drugs were introduced in different syringes and injected to right and left sides of the abdominal cavity, respectively, and the measurement results are shown in the following table 4.

[3] = system: Wistar rat (recipient) with transplanted Lewis rat heart; test: Allogeneic heart transplantation (abdominal heterotopic, Lewis donor to Wistar recipient); assay type: in vivo
Description: Hearts of 8-week-old Lewis rats (donor) weighing about 250 g were extracted and performed abdominal heterotopic heart transplantation into the abdominal cavity of 8-week-old Wistar rat (recipient) weight about 300 g by cross-clamping caudal vena cava and the abdominal aorta of recipient both proximally and distally to the anastomotic site.
The heart rate of each rat in an untreated control group and the experimental groups was measured by abdominal palpation from the date of the heart transplant, and the heart rate was classified as ++++ (strong and fast heartbeat), +++ (strong or fast heartbeat), ++ (faint and slow but distinct heartbeat), + (faint but steady heartbeat), and ±0 (intermittent heartbeat).

[4] = system: streptozotocin induced diabetic Fischer 344 rats with transplanted Lewis rat islet cells; test: Allogeneic pancreatic islet cell transplantation - single intraperitoneal administration; assay type: in vivo
Description: as §1, §2, §3
Cyclosporin (5 mg/kg), colchicine (10 μg/kg and 40 μg/kg), and colchicine derivative compounds (compounds 1, 7, 9, 14, 15, 17, 18, 22, and 23; 50 μg/kg) were administered to the Fischer rats, to which the islet cells were transplanted, for 14 days from the date of transplantation, and the maintenance of blood glucose levels was examined until rejection occurred from the date of transplantation.

[5] = system: streptozotocin induced diabetic Fischer 344 rats with transplanted Lewis rat islet cells; test: Allogeneic pancreatic islet cell transplantation - continuous combined intraperitoneal administration; assay type: in vivo
Description: as §1, §2, §3

[6] = 50 μg/kg combined with CsA (5 mg/kg)
[7] = 10 μg/kg intravenously for 14 days
[8] = 40 μg/kg intravenously for 14 days
[9] = 40 μg/kg intravenously for 14 days, * = death
[10] = single administration, 10 μg/kg i.p. for 14 days
[11] = single administration, 40 μg/kg i.p. for 14 days
[12] = single administration, 40 μg/kg i.p. for 14 days, * = death
[13] = 10 μg/kg combined with CsA (5 mg/kg)
[14] = single administration, 50 μg/kg i.p. for 14 days
[15] = CsA (5 mg/kg) & Compound 14 (40 μg/kg) for 2 weeks, then continuously injected
[16] = CsA (5 mg/kg) & Compound 14 (500 μg/kg) for 2 weeks, then continuously injected
[17] = CsA (5 mg/kg) & Compound 14 (500 μg/kg) for 2 weeks, then only CsA (5 mg/kg)
[18] = CsA (5 mg/kg) & Compound 14 (500 μg/kg) for 2 weeks, then only compound 14 (500 μg/kg)
[19] = CsA (5 mg/kg) & Compound 14 (500 μg/kg) injected for 2 weeks

For `COc1ccc(CCC(=O)NC2CCc3cc(OC)c(OC)c(OC)c3-c3ccc(OC)c(=O)cc32)cc1` (centres unmarked) [Compound 22, 3-(4-methoxy-phenyl)-N-(1,2,3,10-tetramethoxy-9-oxo-5,6,7,9-tetrahydro-benzo[a]heptalen-7-yl)-propionamide], the cytotoxicity [1] was “no cytotoxicity” and the “Average number of days for which islet cell function was maintained” value [2, 6] was 20.7 days.
For `COc1cc2c(c(OC)c1OC)-c1ccc(OC)c(=O)cc1[C@@H](NC(C)=O)CC2` [Colchicine, colchicine], the “Average number of days for which heart rate was kept” value [3, 7] was greater than 70 ± 100.5 days, the “Number of days for which heart rate was kept (individual rats)” value [3, 7] was 12 day (2×) and > 186 day and the “Number of days for which heart rate was kept (individual rats)” value ([3]; 10 μg/kg intravenously for 14 days, listed as colchicine) was 12 day and over 186 day. The “Average number of days for which heart rate was kept” value [3, 8] was greater than 73.3 ± 85.4 days, the “Number of days for which heart rate was kept (individual rats)” value [3, 9] was 13 days and 14 days and > 32 days and > 187 days and the “Number of days for which heart rate was kept (individual rats)” value ([3]; 40 μg/kg intravenously for 14 days, * = death, listed as colchicine) was 13 day and 14 day and over 187 day. The death of rats ([4]; 40 μg/kg alone, four rats, listed as colchicines) was “two of the four rats were dead; also recorded: one rat was dead suddenly after 9 days”, the weight reduction ([4]; 40 μg/kg alone, on the second day, the two rats that died) was 15% and the “difference from the control group in maintenance of blood glucose levels” value ([4]; single administration) was “no significant differences from the control group”. The “Average number of days for which islet cell function was maintained” value [4, 10] was 5 days, the “Number of days for which islet cell function was maintained (individual rats)” value [4, 10] was 5, 5 day and the “Average number of days for which islet cell function was maintained” value [4, 11] was 6 days. The “Number of days for which islet cell function was maintained (individual rats)” value [4, 12] was 2 day (2×) and 6 day and 9 day, the “Number of days for which islet cell function was maintained (individual rats)” value ([4]; single administration, 40 μg/kg i.p. for 14 days, * = death, listed as colchicines) was 6 days and the “Average number of days for which islet cell function was maintained” value [2, 13] was 8 days. For the same molecule, the “Average number of days for which islet cell function was maintained” value ([2]; 10 μg/kg combined with CsA (5 mg/kg), listed as colchicine) was 8 days and the “increase of days of islet cell function compared to the single administration” value ([2]; 10 μg/kg combined with cyclosporin A (5 mg/kg)) was “about 3 days”.
For `COc1cc2c(c(OC)c1OC)-c1ccc(OC)c(=O)cc1C(NC(=O)OCc1ccc(C(C)C)cc1)CC2` (centres unmarked) [Compound 9, (1,2,3,10-tetramethoxy-9-oxo-5,6,7,9-tetrahydro-benzo[a]heptalen-7-yl)-carbamic acid 4-isopropyl benzyl ester], the cytotoxicity [1] was “no cytotoxicity”, the “Average number of days for which islet cell function was maintained” value [4, 14] was 5.7 ± 0.58 days and the “Number of days for which islet cell function was maintained (individual rats)” value [4, 14] was 5 days to days and 5 day and 6 day. The “Average number of days for which islet cell function was maintained” value [2, 6] was greater than 55.7 days.
For `COc1cc2c(c(OC)c1OC)-c1ccc(OC)c(=O)cc1C(NC(=O)OCC1c3ccccc3-c3ccccc31)CC2` (centres unmarked) [Compound 14, (1,2,3,10-tetramethoxy-9-oxo-5,6,7,9-tetrahydro-benzo[a]heptalen-7-yl)-carbamic acid 9H-fluoren-9-ylmethyl ester], the cytotoxicity [1] was “no cytotoxicity”, the “Average number of days for which heart rate was kept” value [3, 7] was greater than 107 ± 86.6 days and the “Number of days for which heart rate was kept (individual rats)” value [3, 7] was 9 day and over 139 day and over 173 day and > 139 day and > 173 day. For the same molecule, the “Average number of days for which heart rate was kept” value [3, 8] was greater than 173.5 ± 0.7 days, the “Number of days for which heart rate was kept (individual rats)” value [3, 9] was “over 173 day and > 174 day and > 173 day” and the “Average number of days for which islet cell function was maintained” value [4, 10] was 5.5 ± 0.71 days. For the same molecule, the “Number of days for which islet cell function was maintained (individual rats)” value [4, 10] was 5, 5 day, the “Average number of days for which islet cell function was maintained” value [4, 11] was 6.5 ± 0.71 days and the “Number of days for which islet cell function was maintained (individual rats)” value [4, 12] was 6 days and 7 days. For the same molecule, the “Average number of days for which islet cell function was maintained” value [2, 13] was 28.7 days, the “Average number of days for which islet cell function was maintained” value ([2]; 40 μg/kg combined with CsA (5 mg/kg)) was greater than 61.8 days and the “Average number of days for which islet cell function was maintained” value [5, 15] was greater than 63 ± 9.9 days. The “Number of days for which islet cell function was maintained (individual rats)” value [5, 15] was 56 days and > 70 days, the “Average number of days for which islet cell function was maintained” value [5, 16] was 67.7 ± 24.0 days and the “Number of days for which islet cell function was maintained (individual rats)” value [5, 16] was 40 days and 81 days and 82 days. For the same molecule, the “Average number of days for which islet cell function was maintained” value [5, 17] was 48.5 ± 12.0 days, the “Number of days for which islet cell function was maintained (individual rats)” value [5, 17] was 40 days and 57 days and the “Average number of days for which islet cell function was maintained” value [5, 18] was 52.7 ± 52.3 days. The “Number of days for which islet cell function was maintained (individual rats)” value [5, 18] was 20 days and 25 days and 113 days, the “Average number of days for which islet cell function was maintained” value [5, 19] was 29 ± 3.61 days and the “Number of days for which islet cell function was maintained (individual rats)” value [5, 19] was 25 days and 30 days and 32 days. The “islet cell function improved, times compared to 2 weeks combined administration only” value ([5]; two drugs continuously administered together after combined administration for 2 weeks) was “about 2.3 times”.
In the case of `COc1cc2c(c(OC)c1OC)-c1ccc(OC)c(=O)cc1C(NC(=O)OCC1c3cc(C(C)(C)C)ccc3-c3ccc(C(C)(C)C)cc31)CC2` (centres unmarked) [Compound 17, (1,2,3,10-tetramethoxy-9-oxo-5,6,7,9-tetrahydro-benzo[a]heptalen-7-yl)-carbamic acid 2,7-di-tert-butyl-9H-fluoren-9-ylmethyl ester], the cytotoxicity [1] is reported as “no cytotoxicity” and the “Average number of days for which islet cell function was maintained” value [2, 6] is reported as 36.5 days.
With `COc1cc2c(c(OC)c1OC)-c1ccc(OC)c(=O)cc1C(NC(=O)CC1c3ccccc3-c3ccccc31)CC2` (centres unmarked) [Compound 23, 2-(9H-fluoren-9-yl)-N-(1,2,3,10-tetramethoxy-9-oxo-5,6,7,9-tetrahydro-benzo[a]heptalen-7-yl)-acetamide] the cytotoxicity [1] was “no cytotoxicity” and the “Average number of days for which islet cell function was maintained” value [2, 6] was 26.5 days.
With `COc1cc2c(c(OC)c1OC)-c1ccc(OC)c(=O)cc1C(NC(=O)OCCC1c3ccccc3-c3ccccc31)CC2` (centres unmarked) [Compound 18, (1,2,3,10-tetramethoxy-9-oxo-5,6,7,9-tetrahydro-benzo[a]heptalen-7-yl)-carbamic acid 2-(9H-fluoren-9-yl)-ethyl ester] the cytotoxicity [1] was “no cytotoxicity” and the “Average number of days for which islet cell function was maintained” value [2, 6] was 28 days.
`COc1cc2c(c(OC)c1OC)-c1ccc(OC)c(=O)cc1C(NC(=O)OCc1ccccc1)CC2` (centres unmarked) [Compound 1, (1,2,3,10-tetramethoxy-9-oxo-5,6,7,9-tetrahydro-benzo[a]heptalen-7-yl)-carbamic acid benzyl ester] was tested, and the cytotoxicity [1] was “no cytotoxicity”, the “Average number of days for which islet cell function was maintained” value [2, 6] was 27 days and the “Number of days for which islet cell function was maintained (individual rats)” value [2, 6] was 27, 27 day.
In the case of `COc1cc2c(c(OC)c1OC)-c1ccc(OC)c(=O)cc1C(NC(=O)OCC1c3ccccc3-c3cccc(C)c31)CC2` (centres unmarked) [Compound 15, (1,2,3,10-tetramethoxy-9-oxo-5,6,7,9-tetrahydro-benzo[a]heptalen-7-yl)-carbamic acid 1-methyl-9H-fluoren-9-ylmethyl ester], the cytotoxicity [1] is reported as “no cytotoxicity”, the “Average number of days for which islet cell function was maintained” value [2, 6] is reported as 24 days and the “Number of days for which islet cell function was maintained (individual rats)” value [2, 6] is reported as 24, 24 day.
`COc1ccc(COC(=O)NC2CCc3cc(OC)c(OC)c(OC)c3-c3ccc(OC)c(=O)cc32)cc1` (centres unmarked) [Compound 7, (1,2,3,10-tetramethoxy-9-oxo-5,6,7,9-tetrahydro-benzo[a]heptalen-7-yl)-carbamic acid 4-methoxy benzyl ester] was tested, and the cytotoxicity [1] was “no cytotoxicity”, the “Average number of days for which islet cell function was maintained” value [4, 14] was 5.7 ± 1.16 days and the “Number of days for which islet cell function was maintained (individual rats)” value [4, 14] was 5 day (2×) and 7 day. For the same molecule, the “Average number of days for which islet cell function was maintained” value [2, 6] was greater than 61.6 days and the “Average number of days for which islet cell function was maintained” value ([2]; 100 μg/kg combined with CsA (5 mg/kg)) was greater than 72 days.
